Assay results as given in the NIST ThermoML archive (doi:10.1021/je5009334).
Numbers after ± are expanded uncertainties.

Experiment: xn = mol fraction of the nth substance listed
Settings: 101 kPa, Liquid; for speed of sound: Sing-around technique in a fixed-path interferometer; for mass density: Vibrating tube method

CCC(O)CO (stereo not given) [1,2-butanediol] + OCc1ccccc1
Settings	mass density [kg/m3]	speed of sound [m/s]
298.15 K, x2 = 0	998.492 ± 0.23	1452.6 ± 1.3
298.15 K, x2 = 0.1	1003.29 ± 0.23	1460.7 ± 1.3
298.15 K, x2 = 0.2	1007.97 ± 0.24	1469.2 ± 1.3
298.15 K, x2 = 0.3	1012.52 ± 0.24	1477.2 ± 1.3
298.15 K, x2 = 0.4	1016.95 ± 0.24	1485.3 ± 1.3
298.15 K, x2 = 0.5	1021.24 ± 0.25	1493.2 ± 1.3
298.15 K, x2 = 0.6	1025.4 ± 0.25	1500.6 ± 1.3
298.15 K, x2 = 0.7	1029.45 ± 0.26	1507.6 ± 1.3
298.15 K, x2 = 0.8	1033.41 ± 0.26	1514 ± 1.3
298.15 K, x2 = 0.9	1037.31 ± 0.26	1519.9 ± 1.3
303.15 K, x2 = 0	994.744 ± 0.23	1438.2 ± 1.3
303.15 K, x2 = 0.1	999.491 ± 0.23	1445.9 ± 1.3
303.15 K, x2 = 0.2	1004.13 ± 0.23	1454.3 ± 1.3
303.15 K, x2 = 0.3	1008.65 ± 0.24	1462.1 ± 1.3
303.15 K, x2 = 0.4	1013.06 ± 0.24	1470.3 ± 1.3
303.15 K, x2 = 0.5	1017.34 ± 0.25	1478 ± 1.3
303.15 K, x2 = 0.6	1021.49 ± 0.25	1485.2 ± 1.3
303.15 K, x2 = 0.7	1025.54 ± 0.25	1491.7 ± 1.3
303.15 K, x2 = 0.8	1029.5 ± 0.26	1498 ± 1.3
303.15 K, x2 = 0.9	1033.42 ± 0.26	1503.9 ± 1.3
308.15 K, x2 = 0	990.956 ± 0.23	1423.6 ± 1.3
308.15 K, x2 = 0.1	995.66 ± 0.23	1431.2 ± 1.3
308.15 K, x2 = 0.2	1000.26 ± 0.23	1439.4 ± 1.3
308.15 K, x2 = 0.3	1004.76 ± 0.23	1446.8 ± 1.3
308.15 K, x2 = 0.4	1009.14 ± 0.24	1454.9 ± 1.3
308.15 K, x2 = 0.5	1013.4 ± 0.24	1462.5 ± 1.3
308.15 K, x2 = 0.6	1017.55 ± 0.25	1469.4 ± 1.3
308.15 K, x2 = 0.7	1021.6 ± 0.25	1476 ± 1.3
308.15 K, x2 = 0.8	1025.58 ± 0.25	1482.2 ± 1.3
308.15 K, x2 = 0.9	1029.52 ± 0.25	1488.1 ± 1.3
313.15 K, x2 = 0	987.136 ± 0.23	1409.2 ± 1.3
313.15 K, x2 = 0.1	991.786 ± 0.23	1416.7 ± 1.3
313.15 K, x2 = 0.2	996.372 ± 0.23	1424.4 ± 1.3
313.15 K, x2 = 0.3	1000.84 ± 0.23	1431.8 ± 1.3
313.15 K, x2 = 0.4	1005.2 ± 0.24	1439.7 ± 1.3
313.15 K, x2 = 0.5	1009.46 ± 0.24	1447.1 ± 1.3
313.15 K, x2 = 0.6	1013.6 ± 0.24	1453.9 ± 1.3
313.15 K, x2 = 0.7	1017.66 ± 0.25	1460.4 ± 1.3
313.15 K, x2 = 0.8	1021.64 ± 0.25	1466.6 ± 1.3
313.15 K, x2 = 0.9	1025.6 ± 0.25	1472.5 ± 1.3
318.15 K, x2 = 0	983.284 ± 0.23	1394.6 ± 1.2
318.15 K, x2 = 0.1	987.894 ± 0.23	1401.9 ± 1.2
318.15 K, x2 = 0.2	992.45 ± 0.23	1409.5 ± 1.3
318.15 K, x2 = 0.3	996.891 ± 0.23	1416.7 ± 1.3
318.15 K, x2 = 0.4	1001.24 ± 0.23	1424.3 ± 1.3
318.15 K, x2 = 0.5	1005.48 ± 0.24	1431.4 ± 1.3
318.15 K, x2 = 0.6	1009.62 ± 0.24	1438.2 ± 1.3
318.15 K, x2 = 0.7	1013.68 ± 0.24	1444.8 ± 1.3
318.15 K, x2 = 0.8	1017.69 ± 0.24	1451 ± 1.3
318.15 K, x2 = 0.9	1021.67 ± 0.25	1456.9 ± 1.3
323.15 K, x2 = 0	979.394 ± 0.23	1380 ± 1.2
323.15 K, x2 = 0.1	983.969 ± 0.23	1387.2 ± 1.2
323.15 K, x2 = 0.2	988.488 ± 0.23	1394.3 ± 1.2
323.15 K, x2 = 0.3	992.923 ± 0.23	1401.7 ± 1.3
323.15 K, x2 = 0.4	997.257 ± 0.23	1409.1 ± 1.3
323.15 K, x2 = 0.5	1001.49 ± 0.23	1416.2 ± 1.3
323.15 K, x2 = 0.6	1005.63 ± 0.24	1423.1 ± 1.3
323.15 K, x2 = 0.7	1009.7 ± 0.24	1429.5 ± 1.3
323.15 K, x2 = 0.8	1013.72 ± 0.24	1435.7 ± 1.3
323.15 K, x2 = 0.9	1017.72 ± 0.24	1441.6 ± 1.3
